Target: T1, Glucocorticoid receptor (Homo sapiens, UniProt P04150)
T1 sequence (P04150 whole entry): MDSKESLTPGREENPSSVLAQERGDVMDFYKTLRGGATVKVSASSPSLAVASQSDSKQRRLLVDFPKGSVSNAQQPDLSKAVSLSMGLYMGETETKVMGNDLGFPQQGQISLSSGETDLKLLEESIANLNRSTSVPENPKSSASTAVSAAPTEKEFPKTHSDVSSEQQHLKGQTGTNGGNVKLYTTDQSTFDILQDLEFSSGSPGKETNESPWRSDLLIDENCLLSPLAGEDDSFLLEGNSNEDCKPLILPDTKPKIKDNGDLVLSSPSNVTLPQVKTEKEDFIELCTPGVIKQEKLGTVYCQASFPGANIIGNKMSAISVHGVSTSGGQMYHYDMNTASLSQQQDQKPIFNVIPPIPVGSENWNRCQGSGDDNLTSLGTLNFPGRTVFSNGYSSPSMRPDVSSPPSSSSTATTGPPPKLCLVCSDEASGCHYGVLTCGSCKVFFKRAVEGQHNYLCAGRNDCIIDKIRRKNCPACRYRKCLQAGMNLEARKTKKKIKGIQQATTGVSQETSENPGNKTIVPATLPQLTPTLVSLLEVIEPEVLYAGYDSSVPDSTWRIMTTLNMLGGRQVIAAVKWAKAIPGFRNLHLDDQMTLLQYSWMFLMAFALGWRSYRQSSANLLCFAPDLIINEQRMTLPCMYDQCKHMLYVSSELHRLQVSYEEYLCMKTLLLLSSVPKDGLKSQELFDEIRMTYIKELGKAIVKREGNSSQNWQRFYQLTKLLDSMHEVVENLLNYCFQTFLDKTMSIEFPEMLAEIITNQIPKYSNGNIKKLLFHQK
Assay: GRE Antagonist Assay
Text: The generated cell line allows for identification of compounds showing antagonist activity at the human glucocorticoid receptor (GR) via reduction of LacZ gene expression. Dexamethasone-activated GR binds to the Glucocorticoid Response Element (GRE) in the promoter of the LacZ gene and transcription is initiated.

Structure (SMILES): CC(C)[C@H](NC(=O)C(C)(F)F)[C@H](Oc1ccc2c(cnn2-c2ccc(=O)n(C)c2)c1)c1ccccc1 [US10196374, Example 1]
- IC50: 158 nM

Reference: BindingDB's records for patent US10196374 (Astrazeneca, 2019)
